Laboratory results reported in patent US20240109934A1, “ANTIBIOTICS WITH IMPROVED DRUG RESISTANCE PROFILE” (priority 2021, published 2024).
Values after ≈ are worked out from the molar mass of the structure shown. Where two headings read alike, the source gives them in different places.

Legend:
S. aureus ATCC 29213 [1] = assay: MIC by micro-dilution broth method (CLSI); type: cell-based; conditions: for Antibacterial activity relative to FA: S. aureus ATCC 29213 MIC; for MIC: Staphylococcus aureus, ATCC29213, WT S. aureus ATCC 29213, n = 3, read-out: MIC Without Human Serum
S. aureus 29213 = assay: MIC shift with 50% human serum; type: cell-based; conditions: S. aureus 29213, 50% human serum vs none
Procedure: Antimicrobial Susceptibility Tests. Susceptibility testing was performed in biological triplicate, using the micro-dilution broth method as outlined by the Clinical and Laboratory Standards Institute. […] Human serum (Ultrafiltrate, unspecified gender, 30K Dalton membrane filtered) was purchased from BioIVT (Hicksville, NY).

[2] = Mouse liver microsome stability assay; type: in vitro ADME; conditions: 3 h at 37° C., LC-MS/MS, ± SEM of 3 biological replicates
Procedure: Mouse Liver Microsome Stability Assay. A mixture of PBS (pH 7.4), NADPH regenerating system solution A (Corning Life Sciences), and NADPH regenerating system solution B (Corning Life Sciences) was incubated at 37° C. in a shaking incubator for 5 min. Next, compound was added in DMSO (final concentration 50 μM, 0.5% DMSO) before ice-cold mouse liver microsomes (Thermo Fisher, male CD-1 mice, pooled) were added (final protein concentration of 1 mg/mL). An aliquot was immediately removed, quenched with an equal volume of 100 μM internal standard and centrifuged at 13,000 rcf for 3 min. The reactions were incubated at 37° C. in a shaking incubator for 3 h. A second aliquot was removed and quenched. Samples were analyzed with the 5500 QTRAP LC/MS/MS system (Sciex, Framingham, MA) in Metabolomics Lab of Roy J. Carver Biotechnology Center, University of Illinois at Urbana-Champaign. Software Analyst 1.6.2 was used for data acquisition and analysis. The 1200 series HPLC system (Agilent Technologies, Santa Clara, CA) includes a degasser, an autosampler, and a binary pump. The LC separation was performed on an Agilent Sb-Aq column (4.6×50 mm, […]) with mobile phase A (0.1% formic acid in water) and mobile phase B (0.1% formic acid in acetonitrile). The flow rate was 0.3 mL/min. The linear gradient was as follows: 0-3 min, 100% A; 10-16 min, 5% A; 16.5-22 min, 100% A. The autosampler was set at 10° C. The injection volume was 1 μL. Mass spectra were acquired under both positive (ion spray voltage was +5500 V) and negative (ion spray voltage was −4500 V) electrospray ionization (ESI). The source temperature was 450° C. The curtain gas, ion source gas 1, and ion source gas 2 were 33, 65, and 60 psi, respectively. Multiple reaction monitoring (MRM) was used for quantitation.

[3] = tested on: human foreskin fibroblasts (HFF-1); assay: Cell viability, Alamar Blue assay; type: cell-based; conditions: 72 h incubation, error SEM n = 2, read-out: IC50, Mammalian Toxicity in HFF-1
Procedure: Cell Culture. HFF-1 cells were obtained from ATCC. HFF-1 cells were grown in DMEM with 15% fetal bovine serum (Gemini Benchmark, Cat #100-106), 100 U/mL penicillin, and 100 μg/mL streptomycin. All cells were cultured at 37° C. in a 5% CO2 environment. Media was prepared by the University of Illinois School of Chemical Sciences Cell Media Facility.
Cell Viability. Cells were harvested, seeded in a 96 well-plate and allowed to adhere. Cells were treated with investigational compounds in DMSO (1% final concentration). Cells were incubated for 72 h before viability was assessed by the Alamar Blue Assay. Raptinal ([…]) was used as a dead control.

S. aureus ATCC 29213 [4] = assay: Resistance frequency, large inoculum method; type: cell-based; conditions: head-to-head with FA, 2×-32× the MIC
Procedure: Selection of Resistant Mutants. Resistant mutants were selected via the large inoculum method. Briefly, S. aureus ATCC 29213 (1×10^9 CFU) were plated on 100 mm plates of LB agar containing 4, 2, 1, 0.5, and 0.25 μg/mL.

[5] = tested on: multidrug-resistant clinical isolates of S. aureus; assay: MIC against multidrug-resistant clinical isolates of S. aureus; type: cell-based; conditions: Staphylococcus aureus
[6] = tested on: multidrug-resistant clinical isolates of E. faecium; assay: MIC against multidrug-resistant clinical isolates of E. faecium; type: cell-based

CC(=O)O[C@H]1C[C@@]2(C)[C@@H](C[C@@H](O)[C@H]3[C@@]4(C)CC[C@@H](O)[C@@H](C)[C@@H]4CC[C@@]32C)/C1=C(\CCC=C(Cl)Cl)C(=O)O [Compound 15, (Z)-2-((3R,4S,5S,8S,9S,10S,11R,13R,14S,16S)-16-acetoxy-3,11-dihydroxy-4,8,10,14-tetramethylhexadecahydro-17H-cyclopenta[a]phenanthren-17-ylidene)-6,6-dichlorohex-5-enoic acid]
Antibacterial activity relative to FA (S. aureus ATCC 29213 [1]): modest decreases in potency relative to FA

CC(=O)O[C@H]1C[C@@]2(C)[C@@H](C[C@@H](O)[C@H]3[C@@]4(C)CC[C@@H](O)[C@@H](C)[C@@H]4CC[C@@]32C)/C1=C(\CCC=C(Br)Br)C(=O)O [Compound 16, (Z)-2-((3R,4S,5S,8S,9S,10S,11R,13R,14S,16S)-16-acetoxy-3,11-dihydroxy-4,8,10,14-tetramethylhexadecahydro-17H-cyclopenta[a]phenanthren-17-ylidene)-6,6-dibromohex-5-enoic acid]
Antibacterial activity relative to FA (S. aureus ATCC 29213 [1]): equipotent activity to FA | MIC (S. aureus ATCC 29213 [1]): 0.125 µg/mL (≈ 0.193 µM) | Fold Change Increase in MIC with 50% Human Serum (S. aureus 29213): 32X | Metabolic Stability in Mouse Liver Microsomes (percent remaining) [2]: 88 ± 2% | IC50 [3]: 75 ± 3 µM | IC50 ([3]; Homo sapiens, HFF-1, 72 h): > 50 µM | Resistance frequency relative to FA (S. aureus ATCC 29213 [4]): worse resistance frequency relative to FA

CC(=O)O[C@H]1C[C@@]2(C)[C@@H](C[C@@H](O)[C@H]3[C@@]4(C)CC[C@@H](O)[C@@H](C)[C@@H]4CC[C@@]32C)/C1=C(\CCC=C(I)I)C(=O)O [Compound 17, (Z)-2-((3R,4S,5S,8S,9S,10S,11R,13R,14S,16S)-16-acetoxy-3,11-dihydroxy-4,8,10,14-tetramethylhexadecahydro-17H-cyclopenta[a]phenanthren-17-ylidene)-6,6-diiodohex-5-enoic acid]
Antibacterial activity relative to FA (S. aureus ATCC 29213 [1]): modest decreases in potency relative to FA

CC(=O)O[C@H]1C[C@@]2(C)[C@@H](C[C@@H](O)[C@H]3[C@@]4(C)CC[C@@H](O)[C@@H](C)[C@@H]4CC[C@@]32C)/C1=C(\CCC=C(F)F)C(=O)O [Compound 19, (Z)-2-((3R,4S,5S,8S,9S,10S,11R,13R,14S,16S)-16-acetoxy-3,11-dihydroxy-4,8,10,14-tetramethylhexadecahydro-17H-cyclopenta[a]phenanthren-17-ylidene)-6,6-difluorohex-5-enoic acid]
Antibacterial activity relative to FA (S. aureus ATCC 29213 [1]): modest decreases in potency relative to FA

C=CCC/C(C(=O)O)=C1/[C@@H](OC(C)=O)C[C@@]2(C)[C@H]1C[C@@H](O)[C@H]1[C@@]3(C)CC[C@@H](O)[C@@H](C)[C@@H]3CC[C@@]12C [Compound 21]
Antibacterial activity relative to FA (S. aureus ATCC 29213 [1]): modest decreases in potency relative to FA

CC(=O)O[C@H]1C[C@@]2(C)[C@@H](C[C@@H](O)[C@H]3[C@@]4(C)CC[C@@H](O)[C@@H](C)[C@@H]4CC[C@@]32C)/C1=C(\CCC=C1CCOCC1)C(=O)O [Compound 27, (Z)-2-((3R,4S,5S,8S,9S,10S,11R,13R,14S,16S)-16-acetoxy-3,11-dihydroxy-4,8,10,14-tetramethylhexadecahydro-17H-cyclopenta[a]phenanthren-17-ylidene)-5-(tetrahydro-4H-pyran-4-ylidene)pentanoic acid]
Antibacterial activity relative to FA (S. aureus ATCC 29213 [1]): equipotent activity to FA | MIC (S. aureus ATCC 29213 [1]): 0.125 µg/mL (≈ 0.224 µM) | Fold Change Increase in MIC with 50% Human Serum (S. aureus 29213): 32X | Metabolic Stability in Mouse Liver Microsomes (percent remaining) [2]: 86 ± 5% | Resistance frequency relative to FA (S. aureus ATCC 29213 [4]): worse resistance frequency relative to FA

CC(=O)O[C@H]1C[C@@]2(C)[C@@H](C[C@@H](O)[C@H]3[C@@]4(C)CC[C@@H](O)[C@@H](C)[C@@H]4CC[C@@]32C)/C1=C(\CCCC(C)C)C(=O)O [Compound 28, (Z)-2-((3R,4S,5S,8S,9S,10S,11R,13R,14S,16S)-16-acetoxy-3,11-dihydroxy-4,8,10,14-tetramethylhexadecahydro-17H-cyclopenta[a]phenanthren-17-ylidene)-6-methylheptanoic acid]
Antibacterial activity relative to FA (S. aureus ATCC 29213 [1]): modest decreases in potency relative to FA

CN[C@H](CC(C)C)C(=O)N[C@H]1C(=O)N[C@@H](CC(N)=O)C(=O)N[C@H]2C(=O)N[C@H]3C(=O)N[C@H](C(=O)N[C@H](C(=O)O)c4cc(O)cc(O)c4-c4cc3ccc4O)[C@H](O)c3ccc(c(Cl)c3)Oc3cc2cc(c3O[C@@H]2O[C@H](CO)[C@@H](O)[C@H](O)[C@H]2O[C@H]2C[C@](C)(N)[C@H](O)[C@H](C)O2)Oc2ccc(cc2Cl)[C@H]1O [Vancomycin, vancomycin]
MIC ([5]; NRS3, S. aureus NRS3 (NARSA)): 4 µg/mL (≈ 2.76 µM) | MIC ([5]; NRS4, S. aureus NRS4 (NARSA)): 4 µg/mL (≈ 2.76 µM) | MIC ([5]; NRS17, S. aureus NRS17 (NARSA)): 8 µg/mL (≈ 5.52 µM) | MIC ([5]; NRS18, S. aureus NRS18 (NARSA)): 4 µg/mL (≈ 2.76 µM) | MIC ([5]; NRS21, S. aureus NRS21 (NARSA)): 4 µg/mL (≈ 2.76 µM) | MIC ([5]; NRS22, S. aureus NRS22 (NARSA)): 4 µg/mL (≈ 2.76 µM) | MIC ([5]; NRS23, S. aureus NRS23 (NARSA)): 4 µg/mL (≈ 2.76 µM) | MIC ([5]; NRS24, S. aureus NRS24 (NARSA)): 4 µg/mL (≈ 2.76 µM) | MIC ([5]; NRS26, S. aureus NRS26 (NARSA)): 2 µg/mL (≈ 1.38 µM) | MIC ([5]; NRS27, S. aureus NRS27 (NARSA)): 4 µg/mL (≈ 2.76 µM) | MIC ([5]; NRS29, S. aureus NRS29 (NARSA)): 2 µg/mL (≈ 1.38 µM) | MIC ([5]; NRS51, S. aureus NRS51 (NARSA)): 4 µg/mL (≈ 2.76 µM) | MIC ([5]; NRS68, S. aureus NRS68 (NARSA)): 4 µg/mL (≈ 2.76 µM) | MIC ([5]; NRS73, S. aureus NRS73 (NARSA)): 4 µg/mL (≈ 2.76 µM) | MIC ([5]; NRS74, S. aureus NRS74 (NARSA)): 8 µg/mL (≈ 5.52 µM) | MIC ([5]; NRS76, S. aureus NRS76 (NARSA)): 4 µg/mL (≈ 2.76 µM) | MIC ([5]; NRS77, S. aureus NRS77 (NARSA), no noted resistance): 1 µg/mL (≈ 0.69 µM) | MIC ([5]; NRS382, S. aureus NRS382 (NARSA)): 2 µg/mL (≈ 1.38 µM) | MIC ([5]; NRS383, S. aureus NRS383 (NARSA)): 0.5 µg/mL (≈ 0.345 µM) | MIC ([5]; NRS384, S. aureus NRS384 (NARSA)): 1 µg/mL (≈ 0.69 µM) | MIC ([5]; S. aureus AR0561 (CDC)): 1 µg/mL (≈ 0.69 µM) | MIC ([5]; S. aureus AR0562 (CDC)): 2 µg/mL (≈ 1.38 µM) | MIC ([5]; S. aureus AR0563 (CDC)): 1 µg/mL (≈ 0.69 µM) | MIC ([5]; S. aureus AR0564 (CDC)): 2 µg/mL (≈ 1.38 µM) | MIC ([5]; S. aureus AR0565 (CDC)): 2 µg/mL (≈ 1.38 µM) | MIC ([5]; S. aureus AR0566 (CDC)): 0.5 µg/mL (≈ 0.345 µM) | MIC ([5]; S. aureus AR0567 (CDC)): 1 µg/mL (≈ 0.69 µM) | MIC ([5]; S. aureus AR0568 (CDC)): 0.5 µg/mL (≈ 0.345 µM) | MIC ([5]; S. aureus AR0570 (CDC)): 1 µg/mL (≈ 0.69 µM) | MIC ([6]; Enterococcus faecium, E. faecium AR0572 (CDC)): 512 µg/mL (≈ 353 µM) | MIC ([6]; Enterococcus faecium, E. faecium AR0574 (CDC)): 0.5 µg/mL (≈ 0.345 µM) | MIC ([6]; Enterococcus faecium, E. faecium AR0575 (CDC)): 512 µg/mL (≈ 353 µM) | MIC ([6]; Enterococcus faecium, E. faecium AR0576 (CDC)): 1 µg/mL (≈ 0.69 µM) | MIC ([6]; Enterococcus faecium, E. faecium AR0578 (CDC)): 0.5 µg/mL (≈ 0.345 µM) | MIC ([6]; Enterococcus faecium, E. faecium AR0579 (CDC)): 0.5 µg/mL (≈ 0.345 µM) | MIC ([6]; VRE with high levels of vancomycin resistance): 512 µg/mL (≈ 353 µM)
